Measured values from PMC8952208, “Synthesis, Antiplasmodial, and Antileukemia Activity of Dihydroartemisinin–HDAC Inhibitor Hybrids as Multitarget Drugs” (Pharmaceuticals, 2022).
“Also recorded” adds a separate entry of the source.

Assays:
human HDAC6 (hHDAC6) = target: T1, human HDAC6 (hHDAC6) (Homo sapiens, UniProt Q9UBN7); experiment: In vitro human HDAC6 assay (ZMAL substrate); assay type: biochemical; details: for SI 1/6: Selectivity Index = (hHDAC1 IC50)/(hHDAC6 IC50)
T1 construct: purchased BPS Bioscience Inc. 50006
T1 sequence (Q9UBN7 1-1215): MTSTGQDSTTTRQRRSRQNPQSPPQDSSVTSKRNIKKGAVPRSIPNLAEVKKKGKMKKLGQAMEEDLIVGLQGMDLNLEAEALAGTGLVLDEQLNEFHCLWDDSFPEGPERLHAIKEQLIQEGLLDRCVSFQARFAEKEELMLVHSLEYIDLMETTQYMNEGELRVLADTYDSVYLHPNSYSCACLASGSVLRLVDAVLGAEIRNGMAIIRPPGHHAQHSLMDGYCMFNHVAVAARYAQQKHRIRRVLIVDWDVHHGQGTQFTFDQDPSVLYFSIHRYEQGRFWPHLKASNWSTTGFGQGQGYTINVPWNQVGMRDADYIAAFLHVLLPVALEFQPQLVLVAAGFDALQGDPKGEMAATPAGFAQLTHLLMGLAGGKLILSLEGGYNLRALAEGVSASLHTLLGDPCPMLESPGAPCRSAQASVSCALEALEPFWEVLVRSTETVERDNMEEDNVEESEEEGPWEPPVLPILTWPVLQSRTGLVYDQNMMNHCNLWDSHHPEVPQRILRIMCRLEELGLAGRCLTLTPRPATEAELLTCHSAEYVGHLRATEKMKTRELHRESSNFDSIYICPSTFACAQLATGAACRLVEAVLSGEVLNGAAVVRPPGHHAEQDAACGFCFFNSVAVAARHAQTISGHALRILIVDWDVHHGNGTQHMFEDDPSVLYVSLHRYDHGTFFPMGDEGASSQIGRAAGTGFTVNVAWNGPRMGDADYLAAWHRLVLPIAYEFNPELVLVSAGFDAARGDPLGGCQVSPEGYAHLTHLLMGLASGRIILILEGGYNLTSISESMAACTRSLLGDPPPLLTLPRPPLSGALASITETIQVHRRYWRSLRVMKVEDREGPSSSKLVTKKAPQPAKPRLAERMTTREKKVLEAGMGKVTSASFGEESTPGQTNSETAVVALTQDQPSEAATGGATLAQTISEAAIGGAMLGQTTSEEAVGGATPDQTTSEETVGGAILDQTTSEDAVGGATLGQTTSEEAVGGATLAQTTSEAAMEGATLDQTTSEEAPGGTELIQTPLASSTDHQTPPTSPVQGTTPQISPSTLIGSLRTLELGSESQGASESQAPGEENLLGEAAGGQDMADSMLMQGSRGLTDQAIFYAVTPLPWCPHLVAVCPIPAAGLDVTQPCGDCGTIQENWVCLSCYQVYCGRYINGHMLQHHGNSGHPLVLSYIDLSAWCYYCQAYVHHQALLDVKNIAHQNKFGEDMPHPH
Procedure: OptiPlate-96 black microplates (Perkin Elmer Inc., Waltham, MA, USA) were used with an assay volume of 50 µL. […] After an incubation time of 90 min, 50 µL of 0.4 mg/mL trypsin in trypsin buffer (50 mM Tris-HCl, pH 8.0, and 100 mM NaCl) was added, followed by further incubation at 37 °C for 30 min.

[1] = system: artemisinin-resistant P. falciparum Dd2 R539T; experiment: Ring-stage survival assay (0–3 h), Dd2 R539T; assay type: cell-based; details: 700 nM, 6 h pulse; relative to DMSO control; compared with DHA
Procedure: (§1) The effect of DHA–HDACi hybrids on artemisinin-resistant asexual stages of P. falciparum was assessed using the ring-stage survival assay as previously described with minor modifications. Briefly, mature schizonts of the artemisinin-sensitive strain Dd2 and the partial artemisinin-resistant strain Dd2 R539Twere isolated using magnetic column separation. The schizonts were then put with 10 mL complete medium and 200 µL 0^+ erythrocytes in a T-25 cell culture flask and incubated for exactly 3 h (37 °C, 5% O2, and 5% CO2). Next, parasites were synchronized with 5% (w/v) D-sorbitol solution yielding a culture containing only newly-invaded (0–3 h) ring-stage parasites.
(§2) Ring-stage parasites were added at 2% hematocrit and 0.5% parasitemia to a 48-well plate precoated with complete medium containing either DHA (Sigma-Aldrich) (positive control) or the tested DHA–HDACi hybrids at a final concentration of 700 nM or DMSO (negative control). […] Parasitemia was assessed by Giemsa-stained thin blood smears by two independent readers (10,000 erythrocytes per slide). If the results were discordant by more than 50%, a third independent read was conducted. The survival was calculated as the percentage of treated versus the untreated controls (DMSO). […] Means and standard deviations were calculated using Microsoft Excel. […]

[2] = system: acetylation of α-tubulin (marker of HDAC6 inhibition); experiment: Immunoblotting, acetyl-α-tubulin in K562 cells; assay type: cell-based, human; details: 0.4 µM, 24 h
Procedure: (§3) K562 cells were treated with the indicated concentration of the compounds or vehicle control (DMSO) for 24 h. The recovered cell pellets were lysed with RIPA buffer (50 mM Tris-HCl pH 8.0, 1% Triton X-100, 0.5% sodium deoxycholate, 0.1% SDS, 150 mM sodium chloride, and 2 mM EDTA), supplemented with protease and phosphatase inhibitors (Thermofischer Scientific, Waltham, MA, USA). An equal amount of total protein (20 µg) was resolved by SDS-PAGE and followed by transfer on nitrocellulose membrane (Sigma-Aldrich). PageRuler prestained protein ladder, 10 kDa to 180 kDa (Thermofisher Scientific, Waltham, MA, USA) was used as a protein molecular weight marker.

[3] = system: acetylation of histone H3 (marker of HDAC1 inhibition); experiment: Immunoblotting, acetyl-histone H3 in K562 cells; assay type: cell-based, human; details: 0.4 µM, 24 h
Procedure: as §3

[4] = system: artemisinin-sensitive P. falciparum Dd2; experiment: Ring-stage survival assay (0–3 h), Dd2; assay type: cell-based; details: 700 nM, 6 h pulse; relative to DMSO control
Procedure: as §1, §2

| SMILES | IC50 (human HDAC6 (hHDAC6)) [nM] | SI 1/6 (human HDAC6 (hHDAC6)) | survival of artemisinin-resistant Dd2 R539T parasites in ring-stage survival assay [1] | acetylation of α-tubulin (immunoblot) [2] | acetylation of histone H3 (immunoblot) [3] | survival of artemisinin-sensitive Dd2 parasites in ring-stage survival assay [4] [%] |
| --- | --- | --- | --- | --- | --- | --- |
| C[C@H]1[C@@H](SCc2ccc(C(=O)NO)cc2)O[C@@H]2O[C@@]3(C)CC[C@H]4[C@H](C)CC[C@@H]1[C@@]24OO3 [(α)-7c, N-Hydroxy-4-((((3R,5aS,6R,8aS,9R,10R,12S,12aR)-3,6,9-trimethyldecahydro-12H-3,12-epoxy[1,2]dioxepino[4,3-i]isochromen-10-yl)thio)methyl)benzamide] | 36 ± 8 | 56 | significantly more active than DHA alone; also recorded: lowest survival |  |  |  |
| C[C@H]1[C@H](SCc2ccc(C(=O)NO)cc2)O[C@@H]2O[C@@]3(C)CC[C@H]4[C@H](C)CC[C@@H]1[C@@]24OO3 [(β)-7c, N-Hydroxy-4-((((3R,5aS,6R,8aS,9R,10S,12S,12aR)-3,6,9-trimethyldecahydro-12H-3,12-epoxy[1,2]dioxepino[4,3-i]isochromen-10-yl)thio)methyl)benzamide] | 41 ± 9 | 68 |  | induced acetylation of α-tubulin | did not induce acetylation of histone H3 |  |
| C[C@@H]1CC[C@H]2[C@@H](C)C(OCc3ccc(/C=C/C(=O)NO)cc3)O[C@@H]3O[C@@]4(C)CC[C@@H]1[C@]32OO4 (stereo partly drawn) [Compound 7a, (E)-N-Hydroxy-3-(4-((((3R,5aS,6R,8aS,9R,12R,12aR)-3,6,9-trimethyldecahydro-12H-3,12-epoxy[1,2]dioxepino[4,3-i]isochromen-10-yl)oxy)methyl)phenyl)acrylamide] | 187 ± 4 | 3 |  |  |  |  |
| C[C@H]1[C@@H](O)O[C@@H]2O[C@@]3(C)CC[C@H]4[C@H](C)CC[C@@H]1[C@@]24OO3 [DHA, dihydroartemisinin] | > 10000 |  |  | affected the acetylation level neither of α-tubulin nor of histone H3 | affected the acetylation level neither of α-tubulin nor of histone H3 | ≤ 0.25 |
